# Experimental data from patent publication US11975051B1, “Therapeutic peptides and uses thereof” (priority 2022, dated 2024).
# “Also recorded” adds a separate entry of the source. Where two headings read alike, the source gives them in different places. Where a SMILES comes first, the peptide text is derived from it. [ ]: non-standard residue; d: D form.
# Experiments:
# [1] = test system: A-375 (Prdx6 KO) cells; experiment: Erastin-induced ferroptotic cell death, viability; type: cell-based; conditions: pre-treatment followed by TVALA treatment; data not shown
# Method: (§1) Melanoma cell lines A-375, A-375 non-target, and A-375 (Prdx6 KO) cells were pre-incubated with TVALA™, washed, and treated with Erastin. Following treatment, the cells were evaluated for viability. […] When the cells were pre-treated with TVALA™, washed, and incubated with TVALA™ followed by treatment with Erastin, the cells were protected against Erastin-induced cell death. When A-375 non target cells or A-375 knock out cells were used there was no effect of pre-treatment followed by TVALA™ treatment as expected (data not shown).
# [2] = test system: A-375 non-target cells; experiment: Erastin-induced ferroptotic cell death, viability; type: cell-based; conditions: pre-treatment followed by TVALA treatment; data not shown
# Method: as §1
# [3] = test system: A-375 melanoma cells; experiment: Erastin-induced ferroptotic cell death, viability; type: cell-based; conditions: washed
# Method: as §1
# [4] = Pharmacokinetics in dog (PO); conditions: in vivo, read-out: % F (PO)
# [5] = Rat microsomal stability; type: in vitro ADME; conditions: rat microsomes
# [6] = test system: ALS patient-derived ASCs; experiment: Stressed ALS patient-derived ASCs treated with peptides, SeaHorse analytics (Example 6); type: cell-based, human
# Text: ALS patient-derived ASCs showing hypermetabolism and lipid sequestration were stressed and treated with peptides (shown below, column 2) and effect of the peptide measured with SeaHorse analytics.
# [7] = Pharmacokinetics in rat (IV, SC, PO); conditions: in vivo
# [8] = test system: SOD1^G93A mouse model of ALS; experiment: 6-week efficacy testing of TVALA in drinking water in the SOD1^G93A mouse model of ALS; type: in vivo
# Method: A 6-week efficacy testing of test article, TVALA™, in daily drinking water, in the SOD1^G93A mouse model of ALS, with neurological scoring, neuroinflammation and axonopathy outcome measures was conducted by orally dosing with 3 mg/kg or 10 mg/kg. In phrenic nerves the axons numbers are not affected at this age, however axons start to atrophy, in femoral nerves, the mice lose axons and the remaining ones are atrophied.
# [9] = Mouse plasma stability; type: in vitro ADME; conditions: read-out: Mouse Plasma Stability t½
# [10] = Mouse (liver) microsomal stability; type: in vitro ADME; conditions: for half-life: mouse, liver microsomes
# [11] = Dog microsomal stability; type: in vitro ADME; conditions: dog microsomes
# [12] = test system: ALS patient derived adipose stem cells (ASCs); experiment: Ionomycin-stressed ALS patient derived adipose stem cells, rescue by test compound (SeaHorse); type: cell-based, human
# Method: Adipose stem cells (“ASCs”) derived from fat tissue harvested from an ALS patient were glycolytic showing increased proliferation and lipid accumulation in culture. An in vitro model of mitochondrial dysfunction was initiated with ALS patient derived ASCs grown in growth media. After cells were confluent, the growth media was treated with chemical stressors, such as ionomycin. Ionomycin induces cell death, apoptosis, peroxide formation, extracellular ATP, and peroxynitrites that are related to mitochondrial dysfunction. The media was exchanged and replaced with basic DMEM with 4 mM pyruvate and no additional growth factors. Test compounds were added in an effort to rescue the ionomycin treated cells. After recovery, 6 hours, the cells were measured for viability, apoptosis, peroxides, and peroxynitrites by SeaHorse analysis. The ASC patient derived cells are a good model to investigate dysregulated mitochondrial dysfunction in disease, these effects are not apparent in all ALS patient derived iPSC fibroblast cells (data not shown).
# [13] = In vitro comparisons of Elamipretide triacetate and TVALA; conditions: data not shown
# Method: TVALA™ may be steroid sparing in diseases that involve innate immunity and autoimmune components that are traditionally treated with steroids. For example, age-related macular degeneration is treated with steroid anti-inflammatory agents. TVALA™ is used as an adjunct to traditional therapies, decreasing or eliminating the need for steroids. Another example is for renal dialysis patients, for which TVALA™ is used as adjunctive or as a replacement to anti-inflammatory therapies. Elamipretide Triacetate is a small, mitochondrially-targeted d-tetrapeptide that is not entirely different from TVALA™, as both have two basic residues (Arg and Lys) and both have a d-Arg. Elamipretide triacetate appears to reduce the production of the toxic reactive oxygen species and stabilize cardiolipin to moderate mitochondrial disease.
# [14] = Pharmacokinetics in mice dosed IV, SC and PO; type: in vivo, mouse; conditions: for half-life / bioavailability / AUC(0-inf) / Cmax: mouse, in vivo, mice
structure (smiles),measurement,setting,value
"CC(C)[C@@H](NC(=O)[C@H](N)Cc1ccc(O)cc1)C(=O)N[C@H](CC(=O)O)C(=O)N[C@H](CCCCN)C(=O)N[C@H](CCCNC(=N)N)C(=O)O [TVALA™, H-(D-Tyr)-(D-Val)-(D-Asp)-(D-Lys)-(D-Arg)-OH] (H-[dY][dV][dD][dK][dR]-OH)",effect on Erastin-induced cell death,[1],no effect
same,effect on Erastin-induced cell death,[2],no effect
same,rescue against Erastin-induced cell death (viability),"[3]; pre-incubated with peptide, treated with Erastin",did not rescue
same,protection against Erastin-induced cell death (viability),"[3]; pre-treated, incubated with peptide, followed by Erastin",protected
same,bioavailability,[4],4.9%
same,half-life,[5],> 60 min
same,effect of the peptide measured with SeaHorse analytics,[6],superior to the other compounds
same,bioavailability,"[7]; PO, read-out: % F (PO)",6.7%
same,bioavailability,"[7]; SC, read-out: % F (SC)",79.2%
same,neuroprotection on the phrenic and femoral motor axon sizes,[8]; 3 mg/kg dose,very discrete neuroprotection
same,effect on the neuroinflammatory marker GFAP (spinal cord),[8]; 3 mg/kg orally compared with 10 mg/kg orally,more significant effects than 10 mg/kg orally
same,Femoral motor axon size,"[8]; 3 mg/kg orally, SOD1^G93A hemizygous mice, vs vehicle/controls",axons of slightly larger size; also recorded: slightly larger femoral motor axons than vehicle treated mice
same,Phrenic nerve cross-section area (phrenic axon size),"[8]; 10 mg/kg orally, SOD1^G93A hemizygous mice, vs vehicle/control",smallest axons; also recorded: smaller phrenic axons than vehicle treated mice
same,brain inflammation,"[8]; oral administration, data not shown",not impacted
same,half-life,[9],> 120 min
same,"stability in mouse liver microsomes, half-life","[10]; mouse liver microsomes, listed as SEQ ID NO:1",greater than 120 minutes
same,half-life,"[10]; mouse liver microsomes, read-out: stability in mouse liver microsomes, half-life",> 120 min
same,half-life,"[10]; mouse microsomes, read-out: Mouse Microsomal Stability t½",> 60 min
same,half-life,[11],> 60 min
same,comparison with TP-5 in ALS patient derived cells,[12],superior to TP-5
same,VEGFR2 expression,[12]; ALS patient derived cells,normalizes
same,peroxides,[12]; ALS-ASC cells in vitro,reduces
same,dysregulated mitochondrial energy metabolism,[12]; in vitro,rescues
same,extracellular ATP (eATP),[12]; in vitro cultured ASCs from an ALS patient,decreased
same,immunomodulation compared with Elamipretide triacetate,[13],superior at immunomodulation
same,target receptors compared with Elamipretide triacetate,[13],more target receptors
same,half-life,"[14]; IV, read-out: IV t½, mice",6.22 min
same,bioavailability,"[14]; PO, read-out: PO % F, mice",30%
same,AUC(0-inf),"[14]; PO, read-out: PO AUCinf",2400 ng·h/mL
same,Cmax,"[14]; PO, read-out: PO Cmax",5290 ng/mL
same,half-life,"[14]; PO, read-out: PO t½, mice",7.36 min
same,bioavailability,"[14]; SC, read-out: SC % F, mice",52%
same,AUC(0-inf),"[14]; SC, read-out: SC AUCinf",355 ng·h/mL
same,Cmax,"[14]; SC, read-out: SC Cmax",674 ng/mL
same,half-life,"[14]; SC, read-out: SC t½, mice",11.9 min
same,expected impact of the oral drug on the central nervous system,"[14]; oral, based on in vivo testing (Table 4)",5%
